{"source": "ChEMBL document CHEMBL3875185", "about": "“Structure-anticonvulsant activity studies in the group of (E)-N-cinnamoyl aminoalkanols derivatives monosubstituted in phenyl ring with 4-Cl, 4-CH3 or 2-CH3” (Bioorg Med Chem, 2017)", "key": {"[1]": {"test_system": "Mus musculus", "assay": "Neurotoxicity in mouse assessed as induction of motor impairment at 30 mg/kg, ip measured at 4 hrs post dose by rotarod method", "type": "toxicity, organism-based", "conditions": "in vivo"}, "[2]": {"test_system": "Rattus norvegicus", "assay": "Neurotoxicity in Sprague-Dawley rat assessed as behavioral change at 30 mg/kg, po measured at 0.5 hrs post dose", "type": "toxicity, organism-based", "conditions": "in vivo"}, "[3]": {"test_system": "Rattus norvegicus", "assay": "Neurotoxicity in Sprague-Dawley rat assessed as behavioral change at 30 mg/kg, po measured at 2 hrs post dose", "type": "toxicity, organism-based", "conditions": "in vivo"}, "[4]": {"test_system": "Mus musculus", "assay": "Anticonvulsant activity in po dosed maximal electroshock induced seizure mouse model assessed as suppression in hindlimb tonic extension by measuring time to peak effect", "type": "functional"}, "[5]": {"test_system": "Mus musculus", "assay": "Anticonvulsant activity in ip dosed pentylenetetrazole induced seizure mouse model assessed as no observable episode of clonic convulsion of at least 5 secs by measuring time to peak effect", "type": "functional"}, "[6]": {"test_system": "Mus musculus", "assay": "Anticonvulsant activity in ip dosed 6-Hz induced seizure mouse model assessed as restoration of normal activity within 10 secs from stimulation by measuring time to peak effect at 44 mA", "type": "functional"}, "[7]": {"test_system": "Mus musculus", "assay": "Anticonvulsant activity in po dosed maximal electroshock induced seizure mouse model assessed as suppression in hindlimb tonic extension", "type": "functional"}, "[8]": {"test_system": "Rattus norvegicus", "assay": "Anticonvulsant activity in po dosed maximal electroshock induced seizure Sprague-Dawley rat model assessed as suppression in hindlimb tonic extension by measuring time to peak effect", "type": "functional"}, "[9]": {"test_system": "Rattus norvegicus", "assay": "Anticonvulsant activity in po dosed maximal electroshock induced seizure Sprague-Dawley rat model assessed as suppression in hindlimb tonic extension", "type": "functional"}, "[10]": {"assay": "Protection index, ratio of TD50 for neurotoxicity in ip dosed Sprague-Dawley rat model to ED50 for ip dosed pentylenetetrazole induced seizure Sprague-Dawley rat model", "type": "toxicity, organism-based", "conditions": "in vivo, read-out: Ratio TD50/ED50"}, "[11]": {"molecular_target": "Adenosine receptor A2a (Homo sapiens) (UniProt P29274)", "sequence (P29274 whole entry)": "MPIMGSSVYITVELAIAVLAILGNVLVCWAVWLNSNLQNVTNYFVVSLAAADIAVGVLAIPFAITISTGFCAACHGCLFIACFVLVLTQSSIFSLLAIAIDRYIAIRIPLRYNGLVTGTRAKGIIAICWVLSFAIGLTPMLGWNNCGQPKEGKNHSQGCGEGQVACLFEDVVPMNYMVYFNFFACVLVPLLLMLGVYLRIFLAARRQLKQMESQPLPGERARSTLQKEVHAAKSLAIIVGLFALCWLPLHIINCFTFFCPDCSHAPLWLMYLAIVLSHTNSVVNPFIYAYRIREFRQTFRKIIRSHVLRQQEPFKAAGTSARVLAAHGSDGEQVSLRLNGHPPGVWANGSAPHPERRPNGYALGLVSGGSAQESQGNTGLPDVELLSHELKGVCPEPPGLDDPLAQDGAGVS", "assay": "Displacement of [3H]CGS 21680 from human recombinant adenosine receptor A2A expressed in HEK293 cells at 100 uM measured after 120 mins by scintillation counting method relative to control", "type": "cell-based"}, "[12]": {"molecular_target": "D(1A) dopamine receptor (Homo sapiens) (UniProt P21728)", "sequence (P21728 whole entry)": "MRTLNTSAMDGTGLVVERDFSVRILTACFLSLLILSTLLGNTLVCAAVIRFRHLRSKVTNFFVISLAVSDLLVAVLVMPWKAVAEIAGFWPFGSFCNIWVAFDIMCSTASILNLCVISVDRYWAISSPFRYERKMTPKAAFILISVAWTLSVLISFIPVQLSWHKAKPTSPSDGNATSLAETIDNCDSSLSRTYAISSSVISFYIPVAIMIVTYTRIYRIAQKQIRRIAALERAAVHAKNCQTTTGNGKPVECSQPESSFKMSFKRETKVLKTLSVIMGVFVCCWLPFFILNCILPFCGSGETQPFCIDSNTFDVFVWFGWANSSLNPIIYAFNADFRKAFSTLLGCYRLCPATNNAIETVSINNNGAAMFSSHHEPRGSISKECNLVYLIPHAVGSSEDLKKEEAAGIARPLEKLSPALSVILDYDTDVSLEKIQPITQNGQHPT", "assay": "Displacement of [3H]SCH 23390 from human recombinant dopamine D1 receptor expressed in CHO cells at 100 uM measured after 60 mins by scintillation counting method relative to control", "type": "cell-based"}, "[13]": {"organism": "Rattus norvegicus", "assay": "Displacement of [3H]GABA from rat cerebral cortex GABA receptor at 100 uM"}, "[14]": {"molecular_target": "T1, C-X-C chemokine receptor type 2 (Homo sapiens) (UniProt P25025)", "T1 sequence (whole entry)": "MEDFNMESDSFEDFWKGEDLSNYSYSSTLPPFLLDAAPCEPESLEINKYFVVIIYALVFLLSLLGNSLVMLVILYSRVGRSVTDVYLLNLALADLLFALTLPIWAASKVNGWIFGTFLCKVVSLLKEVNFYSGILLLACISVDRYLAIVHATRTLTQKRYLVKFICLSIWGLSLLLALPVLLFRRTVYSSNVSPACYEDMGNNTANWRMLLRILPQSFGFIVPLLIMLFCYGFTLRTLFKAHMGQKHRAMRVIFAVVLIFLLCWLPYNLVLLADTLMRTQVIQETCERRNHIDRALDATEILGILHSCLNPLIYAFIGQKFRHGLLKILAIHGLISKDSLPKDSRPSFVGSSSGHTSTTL", "assay": "Displacement of [125I]IL-8 from human recombinant CXCR2 expressed in HEK293 cells at 100 uM measured after 60 mins by scintillation counting method relative to control", "type": "cell-based"}, "[15]": {"molecular_target": "T2, C-C chemokine receptor type 1 (Homo sapiens) (UniProt P32246)", "T2 sequence (whole entry)": "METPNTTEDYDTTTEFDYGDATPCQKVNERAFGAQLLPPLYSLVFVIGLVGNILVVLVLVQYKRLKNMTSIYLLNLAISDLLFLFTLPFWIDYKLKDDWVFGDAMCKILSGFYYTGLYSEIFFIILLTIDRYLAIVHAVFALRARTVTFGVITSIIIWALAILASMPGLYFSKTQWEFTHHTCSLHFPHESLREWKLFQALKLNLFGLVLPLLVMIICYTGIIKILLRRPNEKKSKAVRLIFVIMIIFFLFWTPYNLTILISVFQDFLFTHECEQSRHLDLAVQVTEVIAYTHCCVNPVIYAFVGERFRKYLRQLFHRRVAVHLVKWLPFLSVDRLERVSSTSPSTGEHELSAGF", "assay": "Displacement of [125I]MIP-1a from human recombinant CCR1 receptor expressed in HEK293 cells at 100 uM measured after 120 mins by scintillation counting method relative to control", "type": "cell-based"}, "[16]": {"molecular_target": "Kappa-type opioid receptor (Rattus norvegicus) (UniProt P34975)", "sequence (P34975 whole entry)": "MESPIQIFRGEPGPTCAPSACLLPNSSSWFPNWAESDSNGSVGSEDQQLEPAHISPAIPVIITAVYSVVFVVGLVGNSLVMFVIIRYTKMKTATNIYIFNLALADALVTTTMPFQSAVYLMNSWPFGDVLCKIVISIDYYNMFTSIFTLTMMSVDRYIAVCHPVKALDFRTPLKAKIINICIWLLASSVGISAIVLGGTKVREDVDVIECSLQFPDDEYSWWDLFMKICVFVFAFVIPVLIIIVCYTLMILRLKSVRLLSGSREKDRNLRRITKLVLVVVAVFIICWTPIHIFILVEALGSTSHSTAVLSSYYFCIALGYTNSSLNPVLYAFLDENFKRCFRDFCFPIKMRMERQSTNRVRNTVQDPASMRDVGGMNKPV", "assay": "Displacement of [3H]U 69593 from rat recombinant kappa-opioid receptor expressed in CHO cells at 100 uM measured after 60 mins by scintillation counting method relative to control", "type": "cell-based"}, "[17]": {"organism": "Rattus norvegicus", "assay": "Displacement of [3H]TCP from rat cerebral cortex phencyclidine receptor at 100 uM measured after 120 mins by scintillation counting method relative to control"}, "[18]": {"molecular_target": "Prostaglandin E2 receptor EP4 subtype (Homo sapiens) (UniProt P35408)", "sequence (P35408 whole entry)": "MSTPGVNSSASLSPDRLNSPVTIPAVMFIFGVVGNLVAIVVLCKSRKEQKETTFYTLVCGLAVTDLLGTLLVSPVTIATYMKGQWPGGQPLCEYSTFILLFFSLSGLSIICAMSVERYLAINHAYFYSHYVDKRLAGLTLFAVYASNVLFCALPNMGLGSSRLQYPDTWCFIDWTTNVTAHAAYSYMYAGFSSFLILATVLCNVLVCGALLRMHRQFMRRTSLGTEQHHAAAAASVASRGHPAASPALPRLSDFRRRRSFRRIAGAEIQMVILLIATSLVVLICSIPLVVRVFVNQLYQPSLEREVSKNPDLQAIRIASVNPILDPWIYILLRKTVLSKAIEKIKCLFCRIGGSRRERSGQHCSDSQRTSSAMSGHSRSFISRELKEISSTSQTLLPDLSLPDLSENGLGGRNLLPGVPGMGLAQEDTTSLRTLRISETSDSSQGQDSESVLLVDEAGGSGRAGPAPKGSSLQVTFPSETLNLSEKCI", "assay": "Displacement of [3H]PGE2 from human recombinant EP4 receptor expressed in HEK293 cells at 100 uM measured after 120 mins by scintillation counting method relative to control", "type": "cell-based"}, "[19]": {"molecular_target": "T3, 5-hydroxytryptamine receptor 2C (Homo sapiens) (UniProt P28335)", "T3 sequence (whole entry)": "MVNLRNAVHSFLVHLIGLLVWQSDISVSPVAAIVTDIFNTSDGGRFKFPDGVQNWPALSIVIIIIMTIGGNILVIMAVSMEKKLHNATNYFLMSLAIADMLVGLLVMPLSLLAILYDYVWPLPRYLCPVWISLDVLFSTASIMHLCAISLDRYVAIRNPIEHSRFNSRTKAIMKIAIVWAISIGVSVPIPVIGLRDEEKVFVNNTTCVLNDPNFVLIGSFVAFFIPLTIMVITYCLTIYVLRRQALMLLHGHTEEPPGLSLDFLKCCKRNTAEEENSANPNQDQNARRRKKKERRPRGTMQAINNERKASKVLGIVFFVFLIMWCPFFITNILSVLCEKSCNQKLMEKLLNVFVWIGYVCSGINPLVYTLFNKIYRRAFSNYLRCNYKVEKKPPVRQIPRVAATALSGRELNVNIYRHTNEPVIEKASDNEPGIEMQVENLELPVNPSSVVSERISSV", "assay": "Displacement of [3H]mesulergine from human recombinant 5HT2C receptor expressed in HEK293 cells at 100 uM measured after 120 mins by scintillation counting method relative to control", "type": "cell-based"}, "[20]": {"organism": "Rattus norvegicus", "assay": "Displacement of [35S]TBPS from rat cerebral cortex GABA-gated chloride channel at 100 uM measured after 60 mins by scintillation counting method relative to control"}, "[21]": {"molecular_target": "Sodium-dependent noradrenaline transporter (Homo sapiens) (UniProt P23975)", "sequence (P23975 whole entry)": "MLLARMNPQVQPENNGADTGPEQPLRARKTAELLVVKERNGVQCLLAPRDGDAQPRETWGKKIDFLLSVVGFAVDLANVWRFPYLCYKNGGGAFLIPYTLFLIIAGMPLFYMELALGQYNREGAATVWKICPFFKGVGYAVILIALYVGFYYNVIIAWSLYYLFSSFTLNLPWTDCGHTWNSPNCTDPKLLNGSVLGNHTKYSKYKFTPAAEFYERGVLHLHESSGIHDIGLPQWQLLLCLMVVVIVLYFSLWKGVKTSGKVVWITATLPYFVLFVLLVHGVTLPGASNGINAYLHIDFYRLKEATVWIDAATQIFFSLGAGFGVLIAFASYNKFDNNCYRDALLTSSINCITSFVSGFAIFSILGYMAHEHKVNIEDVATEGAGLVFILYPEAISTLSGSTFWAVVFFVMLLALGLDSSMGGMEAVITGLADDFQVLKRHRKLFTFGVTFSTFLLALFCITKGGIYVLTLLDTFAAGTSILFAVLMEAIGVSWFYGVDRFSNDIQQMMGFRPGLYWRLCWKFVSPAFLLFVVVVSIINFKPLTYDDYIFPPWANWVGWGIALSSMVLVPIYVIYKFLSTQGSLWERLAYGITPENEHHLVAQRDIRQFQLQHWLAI", "assay": "Displacement of [3H]nisoxetine from human recombinant norepinephrine transporter expressed in CHO cells at 100 uM measured after 120 mins by scintillation counting method relative to control", "type": "cell-based"}, "[22]": {"molecular_target": "Sodium-dependent dopamine transporter (Homo sapiens) (UniProt Q01959)", "sequence (Q01959 whole entry)": "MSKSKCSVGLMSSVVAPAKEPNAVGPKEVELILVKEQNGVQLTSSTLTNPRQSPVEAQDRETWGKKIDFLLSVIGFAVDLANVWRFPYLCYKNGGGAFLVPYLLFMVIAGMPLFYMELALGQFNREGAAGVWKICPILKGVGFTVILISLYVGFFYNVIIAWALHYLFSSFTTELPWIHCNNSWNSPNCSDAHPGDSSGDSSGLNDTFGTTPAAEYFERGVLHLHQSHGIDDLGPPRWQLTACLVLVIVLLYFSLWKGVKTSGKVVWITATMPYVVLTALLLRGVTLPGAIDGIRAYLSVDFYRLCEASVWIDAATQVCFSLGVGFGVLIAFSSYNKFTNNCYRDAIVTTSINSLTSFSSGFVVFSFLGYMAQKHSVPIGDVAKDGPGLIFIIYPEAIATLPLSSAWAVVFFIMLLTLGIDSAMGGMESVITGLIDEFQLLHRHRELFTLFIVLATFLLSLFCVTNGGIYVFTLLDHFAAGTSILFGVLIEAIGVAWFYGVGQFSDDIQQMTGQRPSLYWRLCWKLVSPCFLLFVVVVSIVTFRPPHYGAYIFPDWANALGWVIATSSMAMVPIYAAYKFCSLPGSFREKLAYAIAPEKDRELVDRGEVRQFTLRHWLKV", "assay": "Displacement of [3H]BTCP from human recombinant dopamine transporter expressed in CHO cells at 100 uM measured after 120 mins by scintillation counting method relative to control", "type": "cell-based"}}, "data": [{"smiles": "Cc1ccccc1/C=C/C(=O)N[C@@H](C)CO", "values": [{"measurement": "Activity", "setting": "[1]", "result": "Non-Toxic"}, {"measurement": "Activity", "setting": "[2]", "result": "Non-Toxic"}, {"measurement": "Activity", "setting": "[3]", "result": "Non-Toxic"}, {"measurement": "Time", "setting": "[4]", "result": 0.5, "unit": "h"}, {"measurement": "Time", "setting": "[5]", "result": 0.25, "unit": "h"}, {"measurement": "Time", "setting": "[6]", "result": 0.5, "unit": "h"}, {"measurement": "ED50", "setting": "[7]", "result": 43.3, "unit": "mg/kg"}, {"measurement": "Time", "setting": "[8]", "result": 1, "unit": "h"}, {"measurement": "ED50", "setting": "[9]", "result": 25.8, "unit": "mg/kg"}, {"measurement": "selectivity ratio", "setting": "[10]", "result": 4.18}, {"measurement": "inhibition", "setting": "[11]", "result": 3.8, "unit": "%"}, {"measurement": "inhibition", "setting": "[12]", "result": 7.2, "unit": "%"}, {"measurement": "inhibition", "setting": "[13]", "result": 13.2, "unit": "%"}, {"measurement": "inhibition", "setting": "[14]", "result": 21.9, "unit": "%"}, {"measurement": "inhibition", "setting": "[15]", "result": -3.7, "unit": "%"}, {"measurement": "inhibition", "setting": "[16]", "result": 14.8, "unit": "%"}, {"measurement": "inhibition", "setting": "[17]", "result": 7.8, "unit": "%"}, {"measurement": "inhibition", "setting": "[18]", "result": 16.7, "unit": "%"}, {"measurement": "inhibition", "setting": "[19]", "result": 81.2, "unit": "%"}, {"measurement": "inhibition", "setting": "[20]", "result": 17.7, "unit": "%"}, {"measurement": "inhibition", "setting": "[21]", "result": 30.4, "unit": "%"}, {"measurement": "inhibition", "setting": "[22]", "result": 14.8, "unit": "%"}]}, {"smiles": "CC(O)CNC(=O)/C=C/c1ccc(Cl)cc1", "note": "(centres undefined)", "values": [{"measurement": "Activity", "setting": "[1]", "result": "Non-Toxic"}, {"measurement": "Activity", "setting": "[2]", "result": "Non-Toxic"}, {"measurement": "Activity", "setting": "[3]", "result": "Non-Toxic"}, {"measurement": "Time", "setting": "[4]", "result": 1, "unit": "h"}, {"measurement": "Time", "setting": "[5]", "result": 0.5, "unit": "h"}, {"measurement": "Time", "setting": "[6]", "result": 0.25, "unit": "h"}, {"measurement": "ED50", "setting": "[7]", "result": 92.5, "unit": "mg/kg"}, {"measurement": "Time", "setting": "[8]", "result": 0.5, "unit": "h"}, {"measurement": "ED50", "setting": "[9]", "result": 77.3, "unit": "mg/kg"}, {"measurement": "selectivity ratio", "setting": "[10]", "result": 1.25}, {"measurement": "inhibition", "setting": "[11]", "result": 25.2, "unit": "%"}, {"measurement": "inhibition", "setting": "[12]", "result": 14.9, "unit": "%"}, {"measurement": "inhibition", "setting": "[13]", "result": -1.3, "unit": "%"}, {"measurement": "inhibition", "setting": "[14]", "result": 27, "unit": "%"}, {"measurement": "inhibition", "setting": "[15]", "result": -2, "unit": "%"}, {"measurement": "inhibition", "setting": "[16]", "result": 31.6, "unit": "%"}, {"measurement": "inhibition", "setting": "[17]", "result": -5.5, "unit": "%"}, {"measurement": "inhibition", "setting": "[18]", "result": 23.6, "unit": "%"}, {"measurement": "inhibition", "setting": "[19]", "result": 23.4, "unit": "%"}, {"measurement": "inhibition", "setting": "[20]", "result": 22.6, "unit": "%"}, {"measurement": "inhibition", "setting": "[21]", "result": 48.1, "unit": "%"}, {"measurement": "inhibition", "setting": "[22]", "result": 16, "unit": "%"}]}, {"smiles": "CCC(CO)NC(=O)/C=C/c1ccc(Cl)cc1", "note": "(centres undefined)", "values": [{"measurement": "Activity", "setting": "[1]", "result": "Non-Toxic"}, {"measurement": "Activity", "setting": "[2]", "result": "Non-Toxic"}, {"measurement": "Activity", "setting": "[3]", "result": "Non-Toxic"}, {"measurement": "Time", "setting": "[5]", "result": 0.25, "unit": "h"}, {"measurement": "Time", "setting": "[6]", "result": 0.5, "unit": "h"}, {"measurement": "Time", "setting": "[8]", "result": 0.5, "unit": "h"}, {"measurement": "ED50", "setting": "[9]", "result": 46.8, "unit": "mg/kg"}, {"measurement": "selectivity ratio", "setting": "[10]", "result": 1.23}, {"measurement": "inhibition", "setting": "[11]", "result": 27.3, "unit": "%"}, {"measurement": "inhibition", "setting": "[12]", "result": 18.5, "unit": "%"}, {"measurement": "inhibition", "setting": "[13]", "result": 8.7, "unit": "%"}, {"measurement": "inhibition", "setting": "[14]", "result": 27.1, "unit": "%"}, {"measurement": "inhibition", "setting": "[15]", "result": -2.2, "unit": "%"}, {"measurement": "inhibition", "setting": "[16]", "result": 41.9, "unit": "%"}, {"measurement": "inhibition", "setting": "[17]", "result": -2.2, "unit": "%"}, {"measurement": "inhibition", "setting": "[18]", "result": 29.7, "unit": "%"}, {"measurement": "inhibition", "setting": "[19]", "result": 24.5, "unit": "%"}, {"measurement": "inhibition", "setting": "[20]", "result": 37.2, "unit": "%"}, {"measurement": "inhibition", "setting": "[21]", "result": 61.7, "unit": "%"}, {"measurement": "inhibition", "setting": "[22]", "result": 29.5, "unit": "%"}]}]}
